Laboratory results taken from patent publication US20250035576A1, “AUTOMATED OXYGEN-DEPENDENT BLOOD FUNCTION MEASUREMENT SYSTEMS AND METHODS” (FLORIDA ATLANTIC UNIVERSITY BOARD OF TRUSTEES, priority 2023, published 2025).
Entries after “also recorded” stand apart in the source; their conditions may differ.

Tests used:
[1] = test system: sickle cells; experiment: Microfluidic assay of the efficacy of an anti-sickling oxygen modulator on patient samples; type: cell-based, human; conditions: blood samples of 5 patients; FIG. 6D
Text: This, however, could not be detected using conventional hematological assay, such as Hb electrophoresis or HPLC.

[2] = test system: fetal hemoglobin (HbF); conditions: hematological response to HU, literature [38]; cited from earlier work
[3] = test system: sickle cells; experiment: Microfluidic cell sickling assay (kinetics of cell sickling) under controlled low O2 tension, cell-imaging analysis; type: cell-based, human; conditions: sickle cells from patients on HU treatment vs off HU; PaO2 15 mm Hg; FIG. 6A
Description: (§1) A study was conducted to develop and evaluate the exemplary system and method comprising microfluidic assays of sickle cell functional properties to provide quantitative assessments of disease heterogeneity and severity. A microfluidic strategy for on-chip O2 control was developed, which is critical to measure O2-dependent sickle cell functional properties. This method utilizes gas permeability of thin PDMS film (˜150 μm thick) that enables rapid diffusion of O2 at a specific PaO2 value from the gas channel to the cell channel. […]
(§2) Cell sickling events induced by exposing sickle cells to a transient hypoxia (e.g., reduce the atmospheric (atm) PaO2 to a low O2 tension level) are measured under stationary condition (FIG. 5A). […] Sickle cell rheology (deformability and occlusion) are measured under flow condition for 60 s, where sickle cells with extended delay time in HbS polymerization can escape the micro-slits but those containing rigid HbS fibers (undissolved HbS or hypoxia induced HbS fibers) lose their deformability and become trapped at the micro-slits (FIG. 5B). These two aspects of sickle cell behavior measured under controlled O2 tension (in exposure to testing PaO2 15 mm Hg briefly for 60 s) provided quantitative cell functional assessment, which show strong linear correlation to patient's HbS level, as obtained from standard HPLC (FIG. 5C and FIG. 5D). […]

[4] = test system: sickle cells; experiment: Microfluidic sickle cell rheology assay (occlusion/obstruction at micro-slits) under controlled low O2 tension; type: cell-based, human; conditions: sickle cells from patients with HU treatment vs without; PaO2 15 mm Hg, flow 60 s; FIG. 6B
Description: as §1, §2

| Structure (SMILES) | dose dependence of anti-sickling efficacy, patient-specific response [1] | HbF level in some patients [2] | delay time of cell sickling events [3] | occlusion fraction (obstruction in micro-slits) [4] |
| --- | --- | --- | --- | --- |
| O=Cc1ccc(CO)o1 [5HMF, 5-(hydroxymethyl) furfural] | patient-specific response; also recorded: dosedependence is similar among 5 patients, but significant variations exist | – | – | – |
| NC(=O)NO [HU, hydroxyurea] | – | up to 40% | significantly extended | much less obstruction |
